These results are taken from the Kinase Knowledgebase extract (Sharma et al. 2016).

For this assay, the target named is EGFR (human) (UniProt P00533). To be noted: kb.
Sequence of EGFR (human) (P00533 whole entry, looked up): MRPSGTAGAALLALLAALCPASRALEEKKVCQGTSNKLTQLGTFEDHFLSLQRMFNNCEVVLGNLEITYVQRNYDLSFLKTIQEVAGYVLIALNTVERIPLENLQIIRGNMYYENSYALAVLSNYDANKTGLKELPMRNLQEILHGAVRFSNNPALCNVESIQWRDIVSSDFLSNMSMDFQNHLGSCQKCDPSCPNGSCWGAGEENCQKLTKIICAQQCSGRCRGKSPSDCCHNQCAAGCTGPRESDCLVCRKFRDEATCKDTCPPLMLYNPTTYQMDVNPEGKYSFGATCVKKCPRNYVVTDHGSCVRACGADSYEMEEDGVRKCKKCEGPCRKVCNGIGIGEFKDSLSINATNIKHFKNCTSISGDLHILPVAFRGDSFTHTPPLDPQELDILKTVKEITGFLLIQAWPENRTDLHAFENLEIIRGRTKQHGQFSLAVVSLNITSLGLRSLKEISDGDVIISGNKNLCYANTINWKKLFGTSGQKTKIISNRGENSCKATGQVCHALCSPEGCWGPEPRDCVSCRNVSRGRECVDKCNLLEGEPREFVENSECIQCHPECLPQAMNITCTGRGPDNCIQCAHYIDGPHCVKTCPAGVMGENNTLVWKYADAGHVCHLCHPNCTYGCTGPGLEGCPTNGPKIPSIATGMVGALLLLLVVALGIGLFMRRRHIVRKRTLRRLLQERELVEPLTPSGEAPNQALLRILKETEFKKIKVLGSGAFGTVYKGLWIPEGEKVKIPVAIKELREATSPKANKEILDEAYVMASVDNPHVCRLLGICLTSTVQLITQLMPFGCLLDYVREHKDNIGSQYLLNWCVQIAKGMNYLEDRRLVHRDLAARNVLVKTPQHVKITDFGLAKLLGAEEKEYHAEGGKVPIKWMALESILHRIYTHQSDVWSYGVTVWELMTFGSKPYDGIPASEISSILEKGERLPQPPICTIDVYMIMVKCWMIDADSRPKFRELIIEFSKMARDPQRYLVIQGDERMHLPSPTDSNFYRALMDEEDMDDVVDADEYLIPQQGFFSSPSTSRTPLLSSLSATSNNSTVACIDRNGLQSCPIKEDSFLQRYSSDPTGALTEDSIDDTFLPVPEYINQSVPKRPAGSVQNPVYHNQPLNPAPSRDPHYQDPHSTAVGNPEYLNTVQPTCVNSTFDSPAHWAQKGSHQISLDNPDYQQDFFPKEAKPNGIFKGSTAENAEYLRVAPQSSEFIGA

Turning to `CCOCCOc1cc(OC[C@H]2CCCN2C(=O)CO)c2c(Nc3ccc(F)c(Cl)c3)ncnc2c1`, the IC50 came to 99 nM.

`COc1cc(OC[C@@H]2C[C@H](O)CN2C(=O)CN(C)C)c2c(Nc3ccc(F)c(Cl)c3)ncnc2c1` came in with an IC50 of 112 nM.

The molecule `COc1cc(OC[C@H]2C[C@H](O)CN2C(C)=O)c2c(Nc3ccc(F)c(Cl)c3)ncnc2c1` registered a 50% inhibitory concentration (IC50) of 75 nM.

The molecule `COc1cc(OC[C@H]2CCCN2C(=O)CN(C)C)c2c(Nc3ccc(F)c(Cl)c3)ncnc2c1` gave a half-inhibitory concentration (IC50) of 138 nM.

Take `COc1cc(OC[C@H]2CCCN2C(=O)CO)c2c(Nc3ccc(F)c(Cl)c3)ncnc2c1`: the IC50 came to 91 nM.

Molecule `COCC(=O)N1C[C@@H](O)C[C@@H]1COc1cc(OC)cc2ncnc(Nc3ccc(F)c(Cl)c3)c12` yielded a half-inhibitory concentration (IC50) of 288 nM.

Consider `COc1cc(OC[C@@H]2CCCN2C(=O)CN(C)C)c2c(Nc3ccc(F)c(Cl)c3)ncnc2c1`, for which the IC50 was determined as 141 nM.

In turn, `O=C(CO)N1CCC[C@@H]1COc1cc(OCCO)cc2ncnc(Nc3ccc(F)c(Cl)c3)c12` registered a 50% inhibitory concentration (IC50) of 128 nM.

Take `COc1cc(OC[C@@H]2C[C@@H](O)CN2C(=O)CO)c2c(Nc3ccc(F)c(Cl)c3)ncnc2c1`: the half-maximal inhibitory concentration (IC50) is 156 nM.

Turning to `COc1cc(OC[C@@H]2CCCN2C(=O)CN2CCCC2)c2c(Nc3ccc(F)c(Cl)c3)ncnc2c1`, the half-maximal inhibitory concentration (IC50) stood at 130 nM.

As to `COc1cc(OC[C@H]2C[C@@H](O)CN2C(=O)CO)c2c(Nc3ccc(F)c(Cl)c3)ncnc2c1`, the half-maximal inhibitory concentration (IC50) was found to be 118 nM.

In the case of `COc1cc(OC[C@H]2CCCN2C(C)=O)c2c(Nc3ccc(F)c(Cl)c3)ncnc2c1`, the half-inhibitory concentration (IC50) came to 28 nM.

A word on the IC50: it is the concentration that inhibits the measured activity by half. Low values mean greater potency, high ones weaker potency.
